What all share (assay): relative viability (nuclei count vs DMSO), 5 days (fraction); higher = more cells survive
Compound in the assay “Crenolanib + OSI-027”: CC1(COc2ccc3c(c2)ncn3-c2ccc3cccc(N4CCC(N)CC4)c3n2)COC1 [Crenolanib] + COc1cccc2cc(-c3nc([C@H]4CC[C@H](C(=O)O)CC4)n4ncnc(N)c34)[nH]c12 [OSI-027] (partner 0.5 µM)
The procedure, abridged: (§1)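 The day after seeding in 1536-well plates, lung cancer cell lines were treated by pin tool with a single drug, or with a fixed anchor-drug dose together with five library-drug doses (not always all listed) in √10 steps. After 5 days, a combined fix-and-stain solution (final 0.05% Triton X-100, 1% formaldehyde, 1 ug/ml Hoechst) was added. Nuclei counted on 4× images gave relative viability as treated counts over vehicle counts, reported as the median of duplicate plates.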

Compound in the assay “Crenolanib + Bortezomib”: CC1(COc2ccc3c(c2)ncn3-c2ccc3cccc(N4CCC(N)CC4)c3n2)COC1 [Crenolanib] + CC(C)C[C@H](NC(=O)[C@H](Cc1ccccc1)NC(=O)c1cnccn1)B(O)O [Bortezomib] (partner 0.002 µM)
The procedure, abridged: as §1

Compound in the assay “Tivantinib + Foretinib”: O=C1NC(=O)[C@@H](c2cn3c4c(cccc24)CCC3)[C@@H]1c1c[nH]c2ccccc12 [Tivantinib] + COc1cc2c(Oc3ccc(NC(=O)C4(C(=O)Nc5ccc(F)cc5)CC4)cc3F)ccnc2cc1OCCCN1CCOCC1 [Foretinib] (partner 0.25 µM)
In outline:
as §1

Compound in the assay “Crenolanib + Phenformin”: CC1(COc2ccc3c(c2)ncn3-c2ccc3cccc(N4CCC(N)CC4)c3n2)COC1 [Crenolanib] + N=C(N)NC(=N)NCCc1ccccc1 [Phenformin] (partner 250 µM)
In outline:
as §1

As to UMC-11, the relative viability was determined as 0.523 with Crenolanib + OSI-027 (first compound 0.01 µM); 0.535 with Crenolanib + OSI-027 (first compound 0.03162 µM); 0.538 with Crenolanib + OSI-027 (first compound 0.1 µM); 0.546 with Crenolanib + OSI-027 (first compound 0.3162 µM); 0.514 in the assay with Crenolanib + OSI-027 (first compound 1 µM); 0.811 with Crenolanib + Bortezomib (first compound 0.01 µM). The relative viability with Crenolanib + Bortezomib (first compound 0.03162 µM) worked out at 0.753; with Crenolanib + Bortezomib (first compound 0.1 µM) it was 0.703; with Crenolanib + Bortezomib (first compound 0.3162 µM), 0.752; with Crenolanib + Bortezomib (first compound 1 µM), 0.757; with Tivantinib + Foretinib (first compound 0.01 µM) it was 1.04; with Tivantinib + Foretinib (first compound 0.03162 µM), 0.975. Besides, the relative viability in the assay with Tivantinib + Foretinib (first compound 0.1 µM) turned out to be 0.944; with Tivantinib + Foretinib (first compound 0.3162 µM) it was 1.01; with Crenolanib + Phenformin (first compound 0.01 µM), 0.346; with Crenolanib + Phenformin (first compound 0.03162 µM) it was 0.323; in the assay with Crenolanib + Phenformin (first compound 0.1 µM) it was 0.325; with Crenolanib + Phenformin (first compound 0.3162 µM), 0.329. The relative viability in the assay with Crenolanib + Phenformin (first compound 1 µM) amounted to 0.269.

The record behind these values is the supplement of paper PMC10307832.
